Laboratory results taken from patent EP0311002A2, “Anthracyclin derivatives, a method for their preparation and their use as a drug” (HOECHST AKTIENGESELLSCHAFT, priority 1987, dated 1989).

Test: Qualitative solubility in solvents
Format: physicochemical

With 5‴-Epi-Cytorhodin S the Löslichkeit (in Methanol, Ethylacetat, Chloroform und Toluol) was “leicht löslich” and the Löslichkeit (in Wasser und Hexan) was “unlöslich”.
